Measured values as given in patent publication US20080188421A1, “Hunter-Killer Peptides and Methods of Use” (priority 2004, published 2008).

Tests used:
Kaposi's sarcoma cells [1] = test: Viability of KS cells (Live/Dead assay); assay type: cell-based; conditions: KS cells treated with peptides at 12 ug/mL in DMEM without serum
Experimental: (§1) KS cells were plated in DMEM with 10% FBS in 96-well plates. Media was replaced with 100 uL of DMEM without serum and cells were treated with peptides at 12 ug/mL: The peptides utilized had two distinct disulfide links and are shown below. The other peptides utilized in the studies and methods for tumor studies are essentially as reported in Nature Medicine 5(9): 1032-1038, 1999, which is incorporated herein by reference in its entirety. Crude peptide was unpurified peptide composed monomer and dimer and other species-oxidized forms of the peptide.

Kaposi's sarcoma cells [2] = test: Mitochondrial function in KS cells (WST-1 assay); assay type: cell-based; conditions: KS cells treated with peptides at 12 ug/mL; for mitochondrial function (remaining) in treated KS cell culture: function reduced to
Experimental: as §1
In order to determine the decrease in mitochondrial function in tumor cells targeted with HK-1, which has the structure (CNGRC-GG-d(KLAKLAK)2)2 (SEQ ID NO: 9), Kaposi's sarcoma cells were treated with HK-1, with the corresponding monomeric homing conjugate CNGRC-GG-d(KLAKLAK)2 (SEQ ID NO: 20), with a crude preparation of the CNGRC homing peptide monomers, with an RGD peptide preparation, with a preparation including KLAKLAK (SEQ ID NO: 5) antimicrobial peptides, and with a CNGR control preparation.

mitochondrial membranes = conditions: at a concentration of 10 μM; cited from earlier work

| Substance | cell death (Kaposi's sarcoma cells [1]) | reduction in mitochondrial function (Kaposi's sarcoma cells [2]) [%] | mitochondrial function (remaining) in treated KS cell culture (Kaposi's sarcoma cells [2]) | mitochondrial swelling (mitochondrial membranes) |
| --- | --- | --- | --- | --- |
| (CNGRC-GG-d(KLAKLAK)2)2 [HK-1] | ~50% | 63 | 37% |  |
| CNGRC-GG-d(KLAKLAK)2 | approximately 10% | 34 | over 65% |  |
| d(KLAKLAK)2 |  |  |  | marked mitochondrial swelling |
